Test system: lipids of Neuro2a cells
Assay: Untargeted metabolomics (lipidomic profiling) of Neuro2a cells
Type: cell-based, mouse
Conditions: 10 μM, 6 h
Description: Discovery metabolite profiling was performed as described by Saghatelian et al., “Assignment of endogenous substrates to enzymes by global metabolite profiling,” Biochemistry 43:14332-14339 (2004) with several modifications. […] The media from the cells was removed and cells were washed with DPBS (2×5.0 mL) before adding freshly prepared media solutions containing vehicle or compound. After incubating for 6 h at 37° C. and subsequent removal of the media, the cells were harvested by scrapping in cold DPBS (3 mL) and pelleted by centrifugation in glass vials. The pellets were washed once with cold DPBS (3 mL) and then cold […] (2:1) (3 mL) was added. After vortexing, the vials were centrifuged (3,000×g, 10 min, 4° C.) and the bottom (organic) layer was transferred to a new glass vial and concentrated under a stream of N2. Samples were stored at −80° C. until the day of analysis when they were reconstituted in Mobile Phase A (100 μL, see below).
Lipid extracts were analyzed by LC/MS in both positive and negative modes using an Agilent 6520 QTOF instrument and LC separation performed on a Kinetex reversed phase C18 column (50×4.6 mm, 2.6 μm particle size, 100Å). Mobile phase A was composed of 5:1:4 isopropanol:methanol:water and Mobile phase B was composed of 99:1 isopropanol:water. Both mobile phases also contained 0.1% AcOH and NH4OAc (5 mM) to facilitate ionization and LC separation. […] To minimize carryover, LC solvents were cycled between 100% Mobile Phase A and 100% Mobile Phase B over 5 min after each run. Data analysis was performed using XCMS (Smith et al., 2006) software which is freely available online (http://xcmsonline.scripps.edu).

[1] = Neg, m/z 716.52, RT 32.28 min, versus DMSO
[2] = Neg, m/z 721.50, RT 30.94 min, versus DMSO
[3] = Neg, m/z 786.53, RT 31.97 min, versus DMSO
[4] = Neg, m/z 788.54, RT 34.16 min, versus DMSO
[5] = Neg, m/z 808.51, RT 30.14 min, versus DMSO
[6] = Pos, m/z 788.61, RT 35.81 min, versus DMSO

## CN1CCN(C(=O)c2[nH]c3ccc([N+](=O)[O-])cc3c2-c2ccccc2)CC1 [MJN228, (4-Methylpiperazin-1-yl)(5-nitro-3-phenyl-1H-indol-2-yl)methanone]
Neg, m/z 255.23, RT 14.24 min, versus DMSO
  Fold Change, FFA 16:0: 1.17 fold
Neg, m/z 281.25, RT 15.75 min, versus DMSO
  Fold Change, FFA 18:1: 1.23 fold
Neg, m/z 283.26, RT 20.89 min, versus DMSO
  Fold Change, FFA 18:0: 1.22 fold
Neg, m/z 303.23, RT 12.39 min, versus DMSO
  Fold Change, FFA 20:4: 1.17 fold
Neg, m/z 444.31, RT 9.31 min, versus DMSO
  Fold Change, NAT 24:1: 2.51 fold
Neg, m/z 446.33, RT 13.76 min, versus DMSO
  Fold Change, NAT 24:0: 2.29 fold
Neg, m/z 452.28, RT 5.02 min, versus DMSO
  Fold Change, LPE 16:0: 1.25 fold
Neg, m/z 474.36, RT […], versus DMSO
  Fold Change, NAT 26:0: 2.75 fold
Neg, m/z 478.29, RT 5.66 min, versus DMSO
  Fold Change, LPE 18:1: 1.50 fold
Neg, m/z 480.31, RT 7.96 min, versus DMSO
  Fold Change, LPE 18:0: 1.43 fold
Neg, m/z 596.39, RT […], versus DMSO
  Fold Change, feature m/z 596.39: 2.02 fold
Neg, m/z 622.41, RT 12.66 min, versus DMSO
  Fold Change, feature m/z 622.41: 2.06 fold
Neg, m/z 673.48, RT 33.41 min, versus DMSO
  Fold Change, PA 34:1: 1.01 fold
[1]
  Change (direction), PE 34:1: DOWN
  Fold Change, PE 34:1: 1.35 fold
[2]
  Change (direction), PG 32:0: DOWN
  Fold Change, PG 32:0: 1.26 fold
Neg, m/z 738.51, RT 33.92 min, versus DMSO
  Fold Change, PE 36:4: 1.46 fold
Neg, m/z 747.52, RT 32.95 min, versus DMSO
  Fold Change, PG 34:1: 1.22 fold
Neg, m/z 749.53, RT 34.04 min, versus DMSO
  Fold Change, PG 34:0: 1.24 fold
Neg, m/z 760.51, RT 31.80 min, versus DMSO
  Fold Change, PS 34:1: 1.07 fold
Neg, m/z 764.52, RT 35.18 min, versus DMSO
  Fold Change, PE 38:5: 1.02 fold
Neg, m/z 766.54, RT 36.76 min, versus DMSO
  Fold Change, PE 38:4: 1.01 fold
Neg, m/z 775.55, RT 34.70 min, versus DMSO
  Fold Change, PG 36:1: 1.02 fold
[3]
  Change (direction), PS 36:2: DOWN
  Fold Change, PS 36:2: 1.11 fold
[4]
  Change (direction), PS 36:1: DOWN
  Fold Change, PS 36:1: 1.03 fold
[5]
  Change (direction), PS 38:5: DOWN
  Fold Change, PS 38:5: 1.05 fold
Neuro2a cells, P<0.0001
  elevation of metabolites (NAEs and NATs) versus DMSO: ≥ 2 fold
Pos, m/z 326.30, RT 8.36 min, versus DMSO
  Fold Change, NAE 18:1: 2.91 fold
Pos, m/z 328.32, RT 12.20 min, versus DMSO
  Fold Change, NAE 18:0: 2.00 fold
Pos, m/z 331.28, RT 8.51 min, versus DMSO
  Fold Change, MAG 16:0: 1.67 fold
Pos, m/z 358.30, RT 9.68 min, versus DMSO
  Fold Change, MAG 18:1: 1.37 fold
Pos, m/z 371.10, RT 13.51 min, versus DMSO
  Fold Change, feature m/z 371.10: 2.00 fold
Pos, m/z 522.35, RT 5.29 min, versus DMSO
  Fold Change, LPC 18:1: 1.24 fold
Pos, m/z 524.37, RT 7.49 min, versus DMSO
  Fold Change, LPC 18:0: 1.48 fold
Pos, m/z 544.34, RT 5.29 min, versus DMSO
  Fold Change, LPC 20:4: 1.69 fold
Pos, m/z 669.22, RT 13.52 min, versus DMSO
  Fold Change, feature m/z 669.22: 2.15 fold
Pos, m/z 704.21, RT 19.42 min, versus DMSO
  Fold Change, feature m/z 704.21: 2.45 fold
Pos, m/z 705.21, RT 19.44 min, versus DMSO
  Fold Change, feature m/z 705.21: 2.63 fold
Pos, m/z 743.24, RT 19.42 min, versus DMSO
  Fold Change, feature m/z 743.24: 2.56 fold
Pos, m/z 744.24, RT 19.44 min, versus DMSO
  Fold Change, feature m/z 744.24: 2.88 fold
Pos, m/z 745.24, RT 19.44 min, versus DMSO
  Fold Change, feature m/z 745.24: 2.81 fold
Pos, m/z 762.60, RT 36.86 min, versus DMSO
  Fold Change, PC 34:0: 1.00 fold
Pos, m/z 776.23, RT 25.46 min, versus DMSO
  Fold Change, feature m/z 776.23: 2.50 fold
Pos, m/z 777.23, RT 25.48 min, versus DMSO
  Fold Change, feature m/z 777.23: 2.52 fold
Pos, m/z 778.23, RT 25.47 min, versus DMSO
  Fold Change, feature m/z 778.23: 2.41 fold
Pos, m/z 779.23, RT 25.47 min, versus DMSO
  Fold Change, feature m/z 779.23: 2.59 fold
[6]
  Change (direction), PC 36:1: DOWN
  Fold Change, PC 36:1: 1.04 fold
Pos, m/z 817.26, RT 25.47 min, versus DMSO
  Fold Change, feature m/z 817.26: 2.35 fold
Pos, m/z 818.26, RT 25.47 min, versus DMSO
  Fold Change, feature m/z 818.26: 2.51 fold
Pos, m/z 819.26, RT 25.46 min, versus DMSO
  Fold Change, feature m/z 819.26: 2.85 fold
Pos, m/z 820.26, RT 25.47 min, versus DMSO
  Fold Change, feature m/z 820.26: 2.79 fold
Pos, m/z 850.25, RT 30.92 min, versus DMSO
  Fold Change, feature m/z 850.25: 2.42 fold
Pos, m/z 851.25, RT 30.92 min, versus DMSO
  Fold Change, feature m/z 851.25: 2.41 fold
Pos, m/z 852.25, RT 30.92 min, versus DMSO
  Fold Change, feature m/z 852.25: 2.46 fold
Pos, m/z 853.25, RT 30.92 min, versus DMSO
  Fold Change, feature m/z 853.25: 2.61 fold
Pos, m/z 924.27, RT 33.83 min, versus DMSO
  Fold Change, feature m/z 924.27: 2.14 fold
Pos, m/z 925.27, RT 33.83 min, versus DMSO
  Fold Change, feature m/z 925.27: 2.19 fold
Pos, m/z 926.27, RT 33.84 min, versus DMSO
  Fold Change, feature m/z 926.27: 2.27 fold
Pos, m/z 927.27, RT 33.83 min, versus DMSO
  Fold Change, feature m/z 927.27: 2.19 fold

— patent publication US10168342B2, “Lipid probes and uses thereof” (THE SCRIPPS RESEARCH INSTITUTE, priority 2015, dated 2019)
